Six compounds from US20260317319A1, “NOVEL ERGOLINES AND METHODS OF TREATING MOOD DISORDERS” (Gilgamesh Pharma Inc., priority 2023, published 2026) can be followed below.

Structures are written as SMILES. Read-outs that look alike come from different tables or passages of the source.

The target of one data set is T1, 5-HT2B receptor (Homo sapiens, UniProt P41595).
T1 construct: expressed in transfected cells; host or cells: HEK293, stably transfected
Kind of data set: cell-based. It counts as cell-based. The procedure, abridged:
(§1)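 FLIPR Tetra fluorescence read-out of calcium flux after compound addition. Receptor-expressing stable lines were used (HEK293 for 2A/2B; CHO with Gα15 for 1A), dye-loaded with Fluo-4 Direct and 2.5 mM final probenecid, 50 min at 37 °C.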

A further data set addresses T2, 5-HT1A receptor (Homo sapiens, UniProt P08908).
T2 construct: expressed in transfected cells; host or cells: CHO cells, stably transfected
T2 sequence (P08908 1-422): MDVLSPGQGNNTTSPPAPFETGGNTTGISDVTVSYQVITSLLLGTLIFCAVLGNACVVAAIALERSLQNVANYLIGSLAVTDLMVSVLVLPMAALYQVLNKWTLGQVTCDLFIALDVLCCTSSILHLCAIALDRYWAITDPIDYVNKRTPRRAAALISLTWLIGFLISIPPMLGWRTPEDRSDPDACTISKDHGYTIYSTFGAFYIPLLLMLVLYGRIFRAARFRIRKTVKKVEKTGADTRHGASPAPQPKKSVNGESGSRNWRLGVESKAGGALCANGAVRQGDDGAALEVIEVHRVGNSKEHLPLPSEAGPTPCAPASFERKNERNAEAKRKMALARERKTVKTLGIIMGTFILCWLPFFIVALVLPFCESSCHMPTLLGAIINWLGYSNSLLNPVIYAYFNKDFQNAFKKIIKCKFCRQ
Kind of data set: cell-based. Particulars: CHO, read-out: 5-HT1A % Act @ Max Dose. The procedure, abridged: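 Using HEK293 lines for the 5-HT2 subtypes and Gα15-coupled CHO cells for 5-HT1A, compounds were tested as agonists. Fluorescent Ca2+ signal followed dye loading (Fluo-4 Direct, 2.5 mM final probenecid, 50 min, 37 °C).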

Data set [1] in a line: in vitro. It counts as in vitro ADME, mouse. The text has this: MLM Stability Pooled MLM from male CD-1 mice (BIOIVT M00501) were used.
Another data set concerns the target T3, 5-HT1B receptor (Homo sapiens, UniProt P28222).
T3 construct: expressed in transfected cells
Put plainly: cAMP accumulation functional assay at 5-HT1B. The class given is cell-based. Particulars: for Emax: read-out: 5-HT1B % Act @ Max Dose; for selectivity for 5-HT2A over 5-HT1B: functional, compared to the N-methyl prototype LSD. The essentials:
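Stably transfected human 5-HT1B cells were incubated 60 min at room temperature, after which detection reagent was applied for another 60 min at RT. The read-out was cAMP accumulation, used as a measure of agonist activity.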
(In general: Cyclic AMP is a second messenger, typically raised through Gs and lowered through Gi signalling.)

A short description of data set [2]: in vitro. It counts as in vitro ADME, human.
Data set [3] has as its target T4, 5-HT2A receptor (Homo sapiens, UniProt P28223). Put plainly: cell-based. The class given is cell-based. Particulars: for Emax: read-out: 5-HT2A Arrestin % Act @ Max Dose. The essentials:
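Agonist activity expressed as percent of maximal control ligand signal after vehicle subtraction, from chemiluminescence (RLU). Cells carry ProLink-tagged 5-HT2A plus β-arrestin fused to β-gal deletion mutant; ligand-driven arrestin binding restores β-galactosidase activity (PathHunter). Cells pre-incubated at 37° C.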

Data set [4] is described as follows: in vitro. It counts as in vitro ADME, rat. The source says:
RLM Stability Pooled RLM from male Sprague-Dawley rats (Xenotech R1000) were used.

In data set [5] the target is T4, 5-HT2A receptor. Kind of data set: cell-based. The class given is cell-based. Details: expressed in transfected cells; host or cells: HEK293, stably transfected. The essentials:
as §1

The mark [6] stands for this setting: HEK293, agonist, Ca2+ flux, HEK293, max dose, read-out: 5-HT2B % Act @ Max Dose.
[7] abbreviates: agonist, Ca2+ flux, CHO cells with Gα15, max dose.
The mark [8] stands for this setting: MLM (male CD-1) 0.50 mg/mL, NADPH 1 mM, 1 μM compound, pH 7.4, 37° C., 60 min.
Setting [9] is: agonist, cAMP accumulation, max dose.
[10] abbreviates: HLM 0.50 mg/mL, NADPH 1 mM, 1 μM compound, pH 7.4, 37° C., 60 min.
Setting [11] is: agonist, beta-arrestin recruitment, max dose.
Where [12] appears, read: RLM (male Sprague-Dawley) 0.50 mg/mL, NADPH 1 mM, 1 μM compound, pH 7.4, 37° C., 60 min.
Where [13] appears, read: HEK293, agonist, Ca2+ flux, HEK293, max dose, read-out: 5-HT2A % Act @ Max Dose.

T1 sequence (P41595 whole entry): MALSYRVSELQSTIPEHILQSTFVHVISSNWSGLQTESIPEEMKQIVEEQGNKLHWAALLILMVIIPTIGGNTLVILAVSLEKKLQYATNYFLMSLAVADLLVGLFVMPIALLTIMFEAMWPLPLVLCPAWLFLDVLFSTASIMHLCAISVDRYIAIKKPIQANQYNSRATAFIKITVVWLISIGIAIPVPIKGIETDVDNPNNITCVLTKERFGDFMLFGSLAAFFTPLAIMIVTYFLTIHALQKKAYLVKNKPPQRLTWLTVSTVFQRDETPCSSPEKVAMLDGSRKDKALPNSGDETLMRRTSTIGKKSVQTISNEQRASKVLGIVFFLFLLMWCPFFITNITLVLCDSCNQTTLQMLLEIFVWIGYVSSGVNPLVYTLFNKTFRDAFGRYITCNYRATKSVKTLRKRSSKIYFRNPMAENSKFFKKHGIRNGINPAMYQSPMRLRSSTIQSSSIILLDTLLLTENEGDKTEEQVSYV
T3 sequence (P28222 whole entry): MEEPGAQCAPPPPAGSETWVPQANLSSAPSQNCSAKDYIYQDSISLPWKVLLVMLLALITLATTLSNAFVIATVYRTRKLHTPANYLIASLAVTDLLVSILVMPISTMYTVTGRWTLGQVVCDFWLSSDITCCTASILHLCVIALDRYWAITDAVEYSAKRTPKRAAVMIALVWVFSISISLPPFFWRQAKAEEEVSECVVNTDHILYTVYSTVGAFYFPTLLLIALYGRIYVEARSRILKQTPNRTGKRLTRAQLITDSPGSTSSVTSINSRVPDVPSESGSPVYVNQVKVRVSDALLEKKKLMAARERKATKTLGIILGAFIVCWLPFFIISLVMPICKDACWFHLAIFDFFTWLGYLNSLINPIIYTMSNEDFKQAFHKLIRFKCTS
T4 sequence (P28223 whole entry, the tested form may be a part): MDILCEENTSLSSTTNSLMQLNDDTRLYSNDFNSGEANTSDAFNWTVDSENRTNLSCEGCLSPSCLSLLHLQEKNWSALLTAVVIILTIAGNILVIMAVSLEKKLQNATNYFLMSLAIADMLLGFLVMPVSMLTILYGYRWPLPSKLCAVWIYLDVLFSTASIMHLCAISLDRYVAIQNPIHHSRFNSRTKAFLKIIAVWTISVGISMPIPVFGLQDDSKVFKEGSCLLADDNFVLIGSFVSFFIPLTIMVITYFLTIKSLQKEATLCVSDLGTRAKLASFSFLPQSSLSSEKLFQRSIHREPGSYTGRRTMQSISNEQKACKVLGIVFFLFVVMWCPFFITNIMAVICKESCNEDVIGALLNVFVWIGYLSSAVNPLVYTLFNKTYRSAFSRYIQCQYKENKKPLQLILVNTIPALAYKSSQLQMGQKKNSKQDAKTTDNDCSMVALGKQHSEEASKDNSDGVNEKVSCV

With `CCN(CC)C(=O)[C@@H]1C=C2c3cccc4[nH]cc(c34)C[C@H]2N(C)C1` [LSD, lysergic acid diethylamide, reference compound], the Emax came out at 19.3% on 5-HT2B receptor (HEK293, read-out: 5-HT2B % Act @ Max Dose); 91.4% on 5-HT1A receptor; 98% on 5-HT1B receptor; 52.6% on 5-HT2A receptor [3]; 108% at 5-HT2A receptor [5] (HEK293, read-out: 5-HT2A % Act @ Max Dose). Besides, the “half-life (t1/2)” value in “in vitro [1]” (mouse, microsomes, pH 7.4) is on record as 31.3 min; in the data set “in vitro [2]” (human, microsomes, pH 7.4) it was 71.6 min; in the data set “in vitro [4]” (rat, microsomes, pH 7.4) it was 60.2 min. For the same compound, the “5-HT2A arrestin agonist class” value at 5-HT2A receptor [3] was “partial agonists”.
With `CCN(CC)C(=O)[C@@H]1C=C2c3cccc4[nH]cc(c34)C[C@H]2N(CCCF)C1` [Compound 2, (6aR,9R)—N,N-diethyl-7-(3-fluoropropyl)-4,6,6a,7,8,9-hexahydroindolo[4,3-fg]quinoline-9-carboxamide], the Emax at 5-HT2B receptor (setting [6]) came out at 101%; on 5-HT1A receptor (setting [7]), 92.4%; at 5-HT1B receptor (setting [9]) it was 90%; at 5-HT2A receptor [3] (setting [11]) it was 115%; at 5-HT2A receptor [5] (setting [13]), 97.8%. The “stability in MLM” value in the data set “in vitro [1]” is “much lower stability (higher clearance)”. The “half-life (t1/2)” value is recorded as 2.666 min in the data set “in vitro [1]” (setting [8]), 19.061 min in the data set “in vitro [2]” (setting [10]) and 11.972 min in the data set “in vitro [4]” (setting [12]). For the same compound, the “selectivity for 5-HT2A over 5-HT1B” value at 5-HT1B receptor was “greater selectivity for 5-HT2A over 5-HT1B”. Also, the “stability in HLM” value in the data set “in vitro [2]” is “much lower stability (higher clearance)”. On 5-HT2A receptor [3] (beta-arrestin recruitment), the “5-HT2A arrestin agonist class” value is reported as “full agonists”. In addition, the “stability in RLM” value in the data set “in vitro [4]” was “much lower stability (higher clearance)”.
For the compound `CCCN1C[C@H](C(=O)N[C@H](C)CC)C=C2c3cccc4[nH]cc(c34)C[C@H]21` [Compound 3, (6aR,9R)—N—((R)-sec-butyl)-7-propyl-4,6,6a,7,8,9-hexahydroindolo[4,3-fg]quinoline-9-carboxamide], the Emax is 94.1% at 5-HT2B receptor (setting [6]); 108% at 5-HT1A receptor (setting [7]); 98.7% on 5-HT1B receptor (setting [9]); 110% at 5-HT2A receptor [3] (setting [11]); 103% at 5-HT2A receptor [5] (setting [13]). Moreover, the “selectivity for 5-HT2A over 5-HT2B” value on 5-HT2B receptor (functional, compared to closest N-methyl counterparts Int8, Int11, Int17) is given as “more selective for 5-HT2A over 5-HT2B”. For the same compound, the “stability in MLM” value in the data set “in vitro [1]” is given as “much lower stability (higher clearance)”. Besides, the figures for the “half-life (t1/2)” value in the data set “in vitro [1]” (setting [8]), in the data set “in vitro [2]” (setting [10]) and in the data set “in vitro [4]” (setting [12]) were 1.6 min, 4.2 min and 4.4 min, respectively. Also, the “selectivity for 5-HT2A over 5-HT1B” value at 5-HT1B receptor was “greater selectivity for 5-HT2A over 5-HT1B”. In the data set “in vitro [2]”, the “stability in HLM” value is given as “much lower stability (higher clearance)”. For the same compound, the “5-HT2A arrestin agonist class” value on 5-HT2A receptor [3] (beta-arrestin recruitment) is on record as “full agonists”. Also, the “stability in RLM” value in the data set “in vitro [4]” is “much lower stability (higher clearance)”. For the same compound, the “selectivity for 5-HT2A over adrenergic and dopamine receptors” value on 5-HT2A receptor [5] (versus Alpha1A, Alpha2A, D1, D2) is “exceptional selectivity”.
Regarding `CCN(CC)C(=O)[C@@H]1C=C2c3cccc4[nH]cc(c34)C[C@H]2N(Cc2ccccc2OC)C1` [Compound 10, (6aR,9R)—N,N-diethyl-7-(2-methoxybenzyl)-4,6,6a,7,8,9-hexahydroindolo[4,3-fg]quinoline-9-carboxamide], the Emax at 5-HT2B receptor (setting [6]) stood at 2%; at 5-HT1A receptor (setting [7]), 53%; at 5-HT1B receptor (setting [9]), 87.3%; on 5-HT2A receptor [3] (setting [11]), 47.1%; on 5-HT2A receptor [5] (setting [13]) it was 49.4%. Also, in “in vitro [1]”, the “stability in MLM” value was “much lower stability (higher clearance)”. The “Intrinsic clearance (Clint)” value in “in vitro [1]” (setting [8]) is 1396.8 µL/min/mg; in “in vitro [2]” (setting [10]) it was 190.3 µL/min/mg; in “in vitro [4]” (setting [12]), 407.4 µL/min/mg. For the same compound, the “half-life (t1/2)” value in the data set “in vitro [1]” (setting [8]) is listed as 1 min; in the data set “in vitro [2]” (setting [10]), 7.3 min; in the data set “in vitro [4]” (setting [12]), 3.4 min. In addition, in “in vitro [2]”, the “stability in HLM” value is listed as “much lower stability (higher clearance)”. Also, the “stability in RLM” value in “in vitro [4]” is listed as “much lower stability (higher clearance)”.
Turning to `CCCN1C[C@H](C(=O)N(CC)CC)C=C2c3cccc4[nH]cc(c34)C[C@H]21` [Compound 1, (6aR,9R)—N,N-diethyl-7-propyl-4,6,6a,7,8,9-hexahydroindolo[4,3-fg]quinoline-9-carboxamide], the Emax on 5-HT2B receptor (setting [6]) came to 104%; on 5-HT1A receptor (setting [7]) it was 95.6%; at 5-HT1B receptor (setting [9]), 96.6%; on 5-HT2A receptor [3] (setting [11]) it was 129%; on 5-HT2A receptor [5] (setting [13]), 97%. The “stability in MLM” value in “in vitro [1]” is given as “much lower stability (higher clearance)”. The “half-life (t1/2)” value is 2.3 min in the data set “in vitro [1]” (setting [8]), 15.1 min in “in vitro [2]” (setting [10]) and 16.2 min in the data set “in vitro [4]” (setting [12]). In “in vitro [2]”, the “stability in HLM” value was “much lower stability (higher clearance)”. In addition, the “5-HT2A arrestin agonist class” value at 5-HT2A receptor [3] (beta-arrestin recruitment) was “full agonists”. Moreover, in “in vitro [4]”, the “stability in RLM” value was “much lower stability (higher clearance)”.
By EC50 is commonly meant the concentration at which the effect is half-maximal. With `CCN(CC)C(=O)[C@@H]1C=C2c3cccc4[nH]cc(c34)C[C@H]2N(Cc2cccc(OC)c2)C1` [Compound 18, (6aR,9R)—N,N-diethyl-7-(3-methoxybenzyl)-4,6,6a,7,8,9-hexahydroindolo[4,3-fg]quinoline-9-carboxamide], the Emax on 5-HT2B receptor (setting [6]) was found to be 4.69%; on 5-HT1A receptor (setting [7]), 28.9%; on 5-HT1B receptor (setting [9]), 83.3%; at 5-HT2A receptor [3] (setting [11]) it was 89.6%; at 5-HT2A receptor [5] (setting [13]), 61.1%. Also, the “Intrinsic clearance (Clint)” value in “in vitro [1]” (setting [8]) is 523.7 µL/min/mg; in “in vitro [2]” (setting [10]), 101.7 µL/min/mg; in the data set “in vitro [4]” (setting [12]), 262.8 µL/min/mg. The results for the “half-life (t1/2)” value in the data set “in vitro [1]” (setting [8]), in the data set “in vitro [2]” (setting [10]) and in “in vitro [4]” (setting [12]) were 2.6 min, 13.6 min and 5.3 min, respectively. Also, the EC50 at 5-HT2A receptor [3] (agonist, beta-arrestin recruitment, PathHunter, read-out: 5-HT2A Arrestin EC50) is 4.27 nM.
